Our source for the melting point values is a melting point compilation (Tetko et al.; mined from patent text by program, amines drawn as free bases though some values may be those of a salt).

In the case of `CCN(c1ccccc1)c1nc(=O)c2cccnc2s1`, the melting point is 174 to 175 °C.

In the case of `Cc1cc(Oc2c(Cl)cc(C(F)(F)F)cc2Cl)nn1C(=O)NCCN1CCOCC1`, the melting point lay within 99 to 101 °C.

As for `CC(C)c1cccc(C(C)C)c1NC(=O)CNC(c1ccccc1)c1cccc2ccccc12` (stereo not drawn), the melting point was in the range of 149 to 151 °C.

Regarding `[N-]=[N+]=C(S(=O)(=O)C1CCCCC1)S(=O)(=O)C1CCCCC1`, the melting point is 130 to 131 °C.

The compound `COc1cc2c(c(Cl)c1Cl)C(=O)C(CCCCl)(CCC(C)=O)C2` (stereo not drawn) gave a melting point of 120 to 122 °C.

For `COc1ccc(CN(C)CCc2ccc(NC(=O)c3cccc4c(=O)c5ccccc5n(C)c34)cc2)cc1OC`, the melting point worked out at 182 °C.

In turn, `CC(C)(C)OC(=O)N1CCC(c2nc3cc(-c4ccc(C(N)=O)c(Cl)c4)ccc3o2)CC1` gave a melting point of 169 to 171 °C.

Compound `CN(C)Cc1ccc(CSCCNc2[nH]ccc2[N+](=O)[O-])o1` yielded a melting point of 67 °C.

In turn, `O=C(O)CNC(=O)c1nnc2ccc(NCCCN3CCC(OC(c4ccccc4)c4ccccc4)CC3)nn12` came in with a melting point of 182 to 184 °C.

`CC(C)N1CC(CN(C)C)N(C)c2ccccc2C1=O` (stereo not drawn) showed a melting point of 93 to 95 °C.

With `CC(C)Oc1ccc(Cc2ccc(N)cc2)cc1`, the melting point lay in the range of 92 to 93 °C.

With `Cc1ccc(NC(=O)C(CC2CCCC2)c2ccc(S(C)(=O)=O)cc2)nc1` (stereo not drawn), the melting point is 82 to 85 °C.

`CC(=O)OCc1[nH]c(C(=O)OCc2ccccc2)c(C)c1C(C)=O` came in with a melting point of 97 to 100 °C.

As for `Cc1nnnn1C(C=O)=C(c1ccc(F)cc1)c1ccc(F)cc1`, the melting point was in the range of 151 to 152 °C.

The compound `Cc1nnc(-c2ccc3occ(-c4ccc(C(=O)N5CCCC5)c(F)c4)c3c2)o1` displayed a melting point of 195 to 196 °C.

Compound `CC(C)(C)c1c(C(=O)NC2C3CC4CC(C3)CC2C4)cnn1-c1ccc(C(=O)O)cc1` (stereo not drawn) gave a melting point of 309 °C.

With `OCc1c(CN2CCN(c3ccc(Cl)cc3Cl)CC2)nc2ccc(Cl)cn12`, the melting point lay in the range of 165 to 166 °C.

`CCNC(=O)c1ccc(-n2nnc(C(=O)NC3CC3)c2CS(=O)(=O)c2ccccc2)cc1` came in with a melting point of 169 to 172 °C.

With `CCSCCc1c(-c2ccccc2)nc(N)n2ncnc12`, the melting point is 120 to 122 °C.

For `CC(C)(C)OC(=O)NCC1CNC1`, the melting point fell in the range of 112 to 114 °C.

The compound `COC(=O)[C@@H]1C(=O)CC[C@H]1C(=O)OC` (relative stereo) returned a melting point of 49 to 50 °C.

For the compound `C=C1C(=CC=C2CCCC3(C)C2CCCC3C(C)CCCC(C)(C)O)CC(O)CC1O` (stereo not drawn), the melting point fell in the range of 124 to 127 °C.

`O=c1[nH]c2cccnc2o1` returned a melting point of 252 °C.

In the case of `CN(C)C=C1CSc2ccc(Cl)cc2C1=O`, the melting point fell in the range of 126 to 127 °C.

`N/C(=C1/Sc2ccccc2C1=O)c1ccccc1C(F)(F)F` came in with a melting point of 148 to 149 °C.

Regarding `Cc1ccccc1C1CC(=O)c2c(C(F)(F)F)coc2C1` (stereo not drawn), the melting point was 105 to 107 °C.

`c1cc(NC2CC2)ccn1` displayed a melting point of 111 to 112 °C.

`CC(=O)n1ncc2c(OCc3ccccc3)cccc21` showed a melting point of 97 °C.

In turn, `CCCCCCCCCCCC(=O)c1ccc(-c2ccc(OCC(C)OC(=O)CCCCCC)c(Cl)c2)cc1` (stereo not drawn) gave a melting point of 43.2 to 43.4 °C.

For the compound `Cc1nc(-n2ccc(OCc3ccccc3)cc2=O)sc1C(=O)NCc1ccccc1`, the melting point fell in the range of 219 to 220 °C.

In turn, `CC1(C)OC(=O)C(Oc2cccc(N)n2)=C1c1ccc(S(C)(=O)=O)cc1` showed a melting point of 165 to 166 °C.

On to `Cc1c(S(=O)(=O)Nc2ccc(-c3nc(CO)cs3)cc2S(C)(=O)=O)sc2ccc(F)cc12`, for which the melting point was 209 to 210 °C.

Compound `NS(=O)(=O)c1cccc(-c2noc(-c3cnn4c(C5CC5)cc(-c5ccc(Cl)cc5)nc34)n2)c1` returned a melting point of 285 °C.

In turn, `CC(C)n1nccc1-c1nn(-c2cccc(C(F)(F)F)c2)ccc1=O` showed a melting point of 183 to 184 °C.

The compound `CCCc1nn(C)c2c(=O)n(CCOc3ccc(NC(C)=O)cc3)c(CC)nc12` gave a melting point of 100 to 104 °C.

`CN(C)CCNC(=S)Nc1ccc(-c2nnc(CSCCOc3ccccc3)o2)cc1` had a melting point of 155 to 158 °C.

The compound `Cc1cccc(N2CCOC2=O)c1COc1cccn2c(C=O)c(C)nc12` registered a melting point of 242 to 244 °C.

For `CC(C)(C)c1cc(-c2csc(CN3CCOCC3)n2)cc(C(C)(C)C)c1O`, the melting point came to 137 °C.

Compound `CCn1nc(-c2ccc(OC)c(F)c2)c(-c2ccc(OC)c(F)c2)cc1=O` yielded a melting point of 178 °C.

As to `Nc1cc(C(=O)O)cc(S(N)(=O)=O)c1Nc1ccc(Cl)cc1`, the melting point lay in the range of 273 to 274 °C.

In the case of `COc1ccc(NC(C)C)c(S)c1`, the melting point was 68 to 69 °C.

`CCOC(=O)C(Cc1ccc(OCCN2CCC(C)(C)c3cc(C(=O)c4ccccc4)ccc32)cc1)Nc1ccccc1C(=O)c1ccccc1` (stereo not drawn): the melting point fell in the range of 75 to 77 °C.

For `CC1CC(c2cc3ccc(F)cc3s2)CCN1` (stereo not drawn), the melting point was in the range of 34 to 37 °C.

As for `CCCCc1nc2cc(C)c(C)cc2n1Cc1ccc(C#N)cc1`, the melting point was determined as 160 °C.

Compound `CC(=O)Nc1c(C(=O)C(C)(C)C)[nH]c2cc(Cl)ccc12` came in with a melting point of 190 to 193 °C.

Regarding `O=C(O)c1cccc(Cc2cc(Cl)cc(Cc3ccccc3O)c2O)c1O`, the melting point was 198 to 200 °C.

The compound `COc1nc(OC)nc(N(C(=O)Oc2ccccc2)C(=O)Oc2ccccc2)n1` displayed a melting point of 125 °C.

`CCCCN(C(=O)CNC(=O)c1cc2ccccc2n1CC(=O)OC)c1c(OC)cc(C)cc1OC` came in with a melting point of 139 °C.

In the case of `COC1=CC(=O)C2CC=CCC2C1=O` (stereo not drawn), the melting point was in the range of 120 to 122 °C.

For `Cc1cnc(NC(=O)C(c2ccccc2)c2ccccc2)o1`, the melting point lay in the range of 166 to 168 °C.

In turn, `CCc1ccc(N2CCN(c3c(C)c4c(c(OC)c3C)OC(C)(C)C4)CC2)cc1` had a melting point of 157 to 160 °C.

In turn, `O=C1CCC(c2cc3c(s2)CC(NS(=O)(=O)c2ccccc2)CC3)=NN1` (stereo not drawn) gave a melting point of 230 to 232 °C.

Regarding `CCCS(=O)(=O)Oc1ccc(-c2nc3cc4c(cc3[nH]2)C(C)(C)CC(=O)N4)cc1`, the melting point lay within 148 to 156 °C.

Compound `COC(C)=Nc1cccc(O)n1` had a melting point of 128 to 129 °C.

`CC(=O)N1CC(NC(=O)Nc2cccc(C)c2)C(=O)N(CC(=O)c2ccccc2C)c2ccccc21` (stereo not drawn) came in with a melting point of 215 to 217 °C.

Compound `N#CSc1cc(C(=O)O)cc([N+](=O)[O-])c1C(=O)c1ccccc1` showed a melting point of 184 °C.

Compound `CCOC(=O)C1CCCCN1C(=O)/C=C/c1ccc(Sc2ccc3c(c2)OCCO3)c([N+](=O)[O-])c1` (stereo not drawn) yielded a melting point of 74 to 75 °C.

`CS(=O)(=O)Nc1cc2occc(=O)c2cc1O` gave a melting point of more than 250 °C.

`CC1=CC(=C(C#N)C#N)C=C(C)S1(=O)=O` gave a melting point of 176 to 177 °C.

With `COc1ccc(C(C)(C)C)cc1C=Cc1ccc(C=O)cc1`, the melting point fell in the range of 82 to 83 °C.

On to `S=C(NC1CCCc2sccc21)C1CCNCC1` (stereo not drawn), for which the melting point came out at 102 °C.

In turn, `C1=CC2(C3OCCO3)OC1c1ccccc12` (stereo not drawn) showed a melting point of 48 to 49 °C.

In turn, `CSC(SC)=C1C(=O)CCCC1=O` showed a melting point of 66 to 67 °C.

Compound `c1ccc(-n2c(-c3ccc(OCCCN4CCCCC4)cc3)nc3ccccc32)cc1` gave a melting point of 86 °C.

Compound `COC(=S)NN=C1C(=O)Nc2ccc(C3=NNC(=O)SC3C)cc21` (stereo not drawn) gave a melting point of 245 °C.

`COC(=O)c1nc(-c2ccccc2)n(-c2ccc(Cl)cc2)n1` had a melting point of 136 to 137 °C.

`C=CCc1c(O)c(C(C)=O)cc(C(C)=O)c1O` came in with a melting point of 84 to 86 °C.

For the compound `O=C1CC(CO)C(c2c(Cl)cccc2Cl)N1Cc1ccccc1` (stereo not drawn), the melting point was in the range of 122 to 126 °C.

Compound `CN1CCC(=O)C(C2c3ccccc3CCc3ccccc32)C1` (stereo not drawn) returned a melting point of 146 to 147 °C.

As to `COc1cccc(CC(=O)O)c1OCCCc1cc(OC(C)C)nn1Cc1c(F)cccc1Cl`, the melting point lay within 97 to 98 °C.

In turn, `CCOc1cc2c(cc1OCC)C(CC)C(C)=NN=C2c1ccc(OC)c(OC)c1` (stereo not drawn) displayed a melting point of 91 to 93 °C.

Consider `O=Cc1cc(=O)n2ccsc2n1`, for which the melting point lay within 184 to 186 °C.

Turning to `Cc1ccc(OCCOc2ccc(C)cc2)cc1`, the melting point is 134 °C.

In turn, `CC[C@H](C)C(OCc1ccccc1)[C@H]1[C@H]([N+](=O)[O-])[C@H](c2ccccc2)N[C@@H]1C(=O)NCCCCCC(=O)O` (stereo partly drawn) registered a melting point of 105 to 106 °C.

`CCOC(=S)c1cnc(C)nc1N`: the melting point lay within 130 to 131 °C.

With `CN(C)C=C(C(=O)c1ccccc1)c1ccc(F)cc1`, the melting point lay in the range of 115 to 116 °C.

Compound `CC(CSSc1nc2ccccc2s1)SSc1nc2ccccc2s1` (stereo not drawn) gave a melting point of 63 to 65 °C.

For `CCCCc1c(C(=O)N(C)Cc2ccc3c(Br)c(OCc4nnn[nH]4)ccc3c2)c2ccccc2n1C`, the melting point is 147 to 149 °C.

`C=CCCC(C#N)(C#N)Cc1ccc(OC(F)(F)Br)cc1` came in with a melting point of 50.2 °C.

In the case of `COc1cc(C(=O)Nc2cc(-c3c(-c4ccc(F)c(C)c4)nc4cccnn34)ccn2)ccc1F`, the melting point is 217 to 218 °C.

Compound `CC(C(=O)CC#N)c1ccc(-c2ccccc2)c(F)c1` (stereo not drawn) came in with a melting point of 84 to 85 °C.

On to `COC(=O)C1=Cc2cc(Br)ccc2N(C(=O)OC)CC1`, for which the melting point was in the range of 135 to 136 °C.

In the case of `CCNc1cc(NS(=O)(=O)c2ccc(N)cc2)nc(N2CCC2)n1`, the melting point fell in the range of 260 to 262 °C.

`COc1ccc2c3c(c(=O)oc2c1OC)CN(Cc1ccccc1)CC3` yielded a melting point of 138 to 140 °C.

Consider `CCOC(=O)C1(CCCC(=O)OC(C)(C)C)CCn2c(cc3ccccc32)C1=O` (stereo not drawn), for which the melting point was 104 °C.

With `CC(C)(C)c1cc(N=C2CCc3cc4c(nc32)C(=Nc2cc(C(C)(C)C)cc(C(C)(C)C)c2)CC4)cc(C(C)(C)C)c1`, the melting point lay within 177 to 183 °C.

`O=C(Cl)Oc1ccc(Cl)c(Cl)c1`: the melting point lay in the range of 51 to 53 °C.

In turn, `CCOC(=O)c1c(CCCCn2ccnc2)nc2cc(OC)c(OC)cc2c1-c1ccc(OC)c(OC)c1` registered a melting point of 119 to 120 °C.

As usually defined, the melting point is the temperature of the solid-liquid transition.
